Consider 70 compounds from PubChem BioAssay AID1199 (EPA DSSTox, 2008).

Active and inactive are the calls of the source.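 The calls were made as follows: active = a tumour-causing dose and a tumour site recorded for mice in at least one sex group; inconclusive = only government mouse studies exist and were judged inadequate; inactive = mouse studies exist but none gave tumours.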

This data set has as its system mouse carcinogenicity bioassay, TD50 from CPDB. Nature of the data set: DSSTox (CPDBAS) Carcinogenic Potency Database Summary Mouse Bioassay Results. The text has this:
The Carcinogenic Potency Database (CPDB) is a unique and widely used international resource of the results of over 6500 chronic, long-term animal cancer tests on over 1500 chemical substances. The CPDB provides easy access to the bioassay literature, with qualitative and quantitative analyses of both positive and negative experiments that have been published over the past 50 years in the general literature and by the National Cancer Institute/National Toxicology Program. The CPDB standardizes the diverse literature of cancer bioassays that vary widely in protocol, histopathological examination and nomenclature, and in the published author's choices of what information to provide in their papers. Results are reported in the CPDB for tests in rats, mice, hamsters, dogs, and nonhuman primates, and are based on the most positive result among all experiments for each sex-species. The DSSTox CPDBAS (all species) file incorporates data from the CPDB Summary Tables for the full list of over 1500 chemical substances tested in at least one species. Summary bioassay results for Mouse (TD50, tumor sites, male, female, both sexes) are provided in the CPDB Summary Tables and the DSSTox CPDBAS file for over 1000 chemical substances.
TD50 is a standardized quantitative measure of carcinogenic potency (analogous to an LD50) and is reported in the CPDB Summary Table for each species. Activity Score for actives is computed by mapping of LOG10 (1/TD50_Mouse_mmol) activity values spanning range [MIN, MAX] onto Integer 1-100 Activity Score range, where 100 is highest potency and 1 is lowest: Activity Score = 100 * INTEGER[(log10(1/Activity) - MIN)/(MAX […] MIN)]. If activity is reported but no TD50_Mouse_mmol value is computed, such as for a mixture, the Activity Score is assigned the activity value "50". […] Target sites are reported for each sex-species group with a positive result in the CPDB on the basis of a positive author's opinion for the particular site, using all results from both the general literature and NCI/NTP bioassays. If a chemical has two or more target sites listed, the results may be from different experiments, and a single site may be a target organ in more than one experiment, as well. Blank entry in TargetSites field indicates no results reported.

Where [1] appears, read: TD50_Mouse_Note: no positive results, TargetSites_Mouse_Female: no positive results.
Setting [2] is: TD50_Mouse_Note: TD50 is harmonic mean of more than one positive test, TargetSites_Mouse_Female: stomach.
Setting [3] is: TargetSites_Mouse_Female: liver.
Where [4] appears, read: TD50_Mouse_Note: TD50 is harmonic mean of more than one positive test, TargetSites_Mouse_Female: liver.
The mark [5] stands for this setting: TargetSites_Mouse_Female: no positive results.
Where [6] appears, read: TD50_Mouse_Note: TD50 is harmonic mean of more than one positive test, TargetSites_Mouse_Female: lung.
[7] abbreviates: TD50_Mouse_Note: no positive results.

For the compound `CC[C@H]1CN2CCc3cc(OC)c(OC)cc3[C@@H]2C[C@@H]1C[C@H]1NCCc2cc(OC)c(OC)cc21`, the outcome (TD50_Mouse_Note: only experiment is NCI/NTP bioassay inadequate, TargetSites_Mouse_Female: NTP bioassay inadequate) is recorded as “ntp bioassay inadequate”.

Regarding `c1ccc2c(c1)Oc1ccccc1O2`, the outcome under setting [1] is “inactive; no positive results”.

`OCCBr`: the Potency under setting [2] was 0.609 mmol/kg/day.

Consider `CC(=O)Nc1nnc(-c2ccc([N+](=O)[O-])o2)s1`, for which the Potency (TargetSites_Mouse_Female: stomach) was 0.0265 mmol/kg/day.

For the compound `Oc1ccc(-c2ccccc2)cc1`, the outcome under setting [1] was “inactive; no positive results”.

`Cc1cc(N=Nc2c(O)ccc3ccccc23)c(S(=O)(=O)O)cc1Cl`: under setting [1], the outcome is “inactive; no positive results”.

Consider `O=S(=O)(Oc1ccc(Cl)cc1Cl)c1ccccc1`, for which the outcome under setting [1] was “inactive; no positive results”.

For `CCCCCC`, the Potency under setting [3] was 352 mmol/kg/day.

On to `O=S(=O)(O)c1ccc(N=Nc2cc(S(=O)(=O)O)c3ccccc3c2O)c2ccccc12`, for which the outcome under setting [1] is “inactive; no positive results”.

Turning to `ClC(Cl)Br`, under setting [4], the Potency was 0.291 mmol/kg/day.

Consider `CC(C)(OCc1ccc(-c2ccc(Cl)cc2)cc1)C(=O)O`, for which the Potency under setting [5] was 0.505 mmol/kg/day.

Regarding `CC(=O)Nc1ccc2c(c1)Cc1ccccc1-2`, the Potency (TD50_Mouse_Note: TD50 is harmonic mean of more than one positive test, greater than ten-fold variation among TD50 values for positive res, TargetSites_Mouse_Female: liver, urinary bladder) was 0.034 mmol/kg/day.

Turning to `Cn1cc(OCC(O)CNC(C)(C)C)c2ccccc2c1=O` (stereo unspecified), the outcome under setting [1] is “inactive; no positive results”.

With `NC1CCCCC1`, under setting [1], the outcome was “inactive; no positive results”.

On to `COc1ccc(N)cc1`, for which the outcome under setting [1] is “inactive; no positive results”.

For `CN(C)C(=S)S[Se](SC(=S)N(C)C)(SC(=S)N(C)C)SC(=S)N(C)C`, under setting [1], the outcome is “inactive; no positive results”.

Regarding `NC(N)=NC(N)=NCCc1ccccc1`, under setting [1], the outcome was “inactive; no positive results”.

As for `CCCOC(=O)C1c2cc3c(cc2CC(C)C1C(=O)OCCC)OCO3` (stereo unspecified), the outcome under setting [1] was “inactive; no positive results”.

For `Clc1ccc(C(c2ccc(Cl)cc2)C(Cl)Cl)cc1`, the Potency under setting [6] was 0.0959 mmol/kg/day.

Consider `O=[O+][O-]`, for which, under setting [6], the Potency was 0.0392 mmol/kg/day.

For `Cc1cc(C)nc(NS(=O)(=O)c2ccc(N)cc2)n1`, the Potency (TD50_Mouse_Note: TD50 is harmonic mean of more than one positive test, TargetSites_Mouse_Female: thyroid gland) is 5.43 mmol/kg/day.

Regarding `C/C1=C\C=C(\C(C)C)[C@@H](O)C/C(C)=C/CC/C(C)=C/CC1`, the outcome under setting [7] was “inactive; no positive results”.

In the case of `CCOP(=S)(OCC)Oc1cc(C)nc(C(C)C)n1`, the outcome under setting [1] is “inactive; no positive results”.

Regarding `CN(C)[C@@H]1C(=O)C(C(N)=O)=C(O)[C@@]2(O)C(=O)C3=C(O)c4c(O)cccc4[C@@](C)(O)[C@H]3[C@H](O)[C@@H]12`, under setting [1], the outcome is “inactive; no positive results”.

On to `Oc1ccc(Cl)cc1Cc1ccccc1`, for which the Potency under setting [5] is 6.17 mmol/kg/day.

On to `O=CCBr`, for which, under setting [1], the outcome was “inactive; no positive results”.

For the compound `c1ccc(NNc2ccccc2)cc1`, under setting [3], the Potency was 0.141 mmol/kg/day.

Take `c1ccc2sc(SNC3CCCCC3)nc2c1`: the outcome under setting [1] is “inactive; no positive results”.

`Clc1ccc(C(c2ccccc2Cl)C(Cl)Cl)cc1` (stereo unspecified): the outcome under setting [1] is “inactive; no positive results”.

Consider `C=CCNN`, for which, under “TD50_Mouse_Note: TD50 is harmonic mean of more than one positive test, TargetSites_Mouse_Female: lung, vascular system”, the Potency was 0.315 mmol/kg/day.

With `ClC(Cl)(Cl)Cl`, the Potency (TD50_Mouse_Note: TD50 is harmonic mean of more than one positive test, greater than ten-fold variation among TD50 values for positive res, TargetSites_Mouse_Female: adrenal gland, liver) is 0.218 mmol/kg/day.

Turning to `Nc1ccc(/C=C/c2ccc(N)cc2S(=O)(=O)O)c(S(=O)(=O)O)c1`, the outcome under setting [1] is “inactive; no positive results”.

As to `O=C(O)CCl`, under setting [1], the outcome was “inactive; no positive results”.

On to `CC(C)NCC(O)c1ccc(NS(C)(=O)=O)cc1` (stereo unspecified), for which, under setting [1], the outcome was “inactive; no positive results”.

As for `CC1=C[C@H]2O[C@@H]3[C@H](O)C[C@@](C)(C34CO4)[C@@]2(CO)[C@H](O)C1=O` (stereo partly specified), the outcome under setting [7] is “inactive; no positive results”.

For `CNNCc1ccc(C(=O)NC(C)C)cc1`, where the note is “TD50_Mouse_Note: positive test results only by intraperitoneal or intravenous injection, TD50 is harmonic mean of more than one positive, TargetSites_Mouse_Female: hematopoietic system, lung, nervous system, uterus”, the Potency is 0.00216 mmol/kg/day.

On to `CN(C)c1ccc(N=NS(=O)(=O)O)cc1`, for which, under setting [1], the outcome is “inactive; no positive results”.

With `NCCCCCCCCCCC(=O)O`, under setting [1], the outcome is “inactive; no positive results”.

As to `CCCCNN`, under setting [6], the Potency was 0.0971 mmol/kg/day.

For `C#C[C@]1(O)CC[C@H]2[C@@H]3CCC4=C(CCC(=O)C4)[C@H]3CC[C@@]21C`, the outcome was “active; no positive results” (TD50_Mouse_Note: TD50 is harmonic mean of more than one positive test, greater than ten-fold variation among TD50 values for positive res, TargetSites_Mouse_Female: pituitary gland) and “inactive; no positive results” under setting [1].

Regarding `[CH3][Hg][Cl]`, the Potency (TD50_Mouse_Note: TD50 is harmonic mean of more than one positive test, TargetSites_Mouse_Female: no positive results) was 0.00578 mmol/kg/day.

For the compound `CN(C)c1ccc(C(=O)c2ccc(N(C)C)cc2)cc1`, under setting [4], the Potency is 0.313 mmol/kg/day.

Consider `O=S(=O)([O-])[O-].O=S(=O)([O-])[O-].[Zr+4]`, for which the outcome (TargetSites_Mouse_BothSexes: no positive results) was inactive.

As to `N[C@@H](CCC(=O)NNc1ccc(CO)cc1)C(=O)O`, under setting [1], the outcome is “inactive; no positive results”.

Regarding `Nc1ccc(N=Nc2ccc(N)cc2)cc1`, the outcome under setting [1] is “inactive; no positive results”.

With `ClCOCCl`, for the setting “TD50_Mouse_Note: TD50 is harmonic mean of more than one positive test, TargetSites_Mouse_Female: peritoneal cavity”, the Potency is 0.00158 mmol/kg/day.

Turning to `NS(=O)(=O)c1cc2c(cc1Cl)NCNS2(=O)=O`, under setting [1], the outcome is “inactive; no positive results”.

For the compound `CNc1ncnc2c1ncn2[C@@H]1O[C@H](CO)[C@@H](O)[C@H]1O`, under setting [1], the outcome was “inactive; no positive results”.

On to `COC(=O)C1=C(C)NC(C)=C(C(=O)OCCc2ccc(N3CCN(C(c4ccccc4)c4ccccc4)CC3)cc2)C1c1cccc([N+](=O)[O-])c1` (stereo unspecified), for which the outcome under setting [1] is “inactive; no positive results”.

With `CCCCOC(=O)c1ccccc1C(=O)OCc1ccccc1`, the outcome under setting [1] was “inactive; no positive results”.

With `Nc1ccccc1C(=O)OC/C=C/c1ccccc1`, the Potency under setting [4] is 10.2 mmol/kg/day.

`O=C(NCC1CCCCN1)c1cc(OCC(F)(F)F)ccc1OCC(F)(F)F` (stereo unspecified): the outcome under setting [1] is “inactive; no positive results”.

In the case of `CCc1cccc2c3c([nH]c12)C(CC)(CC(=O)O)OCC3` (stereo unspecified), the outcome under setting [1] is “inactive; no positive results”.

Regarding `Nc1ccc(N=Nc2ccccc2)c(N)n1`, the Potency under setting [3] was 0.285 mmol/kg/day.

On to `C=CCN=C=S`, for which, under setting [1], the outcome was “inactive; no positive results”.

With `ClC1=C(Cl)[C@]2(Cl)[C@@H]3[C@H]4C=CC(C4)[C@@H]3C1(Cl)C2(Cl)Cl`, where the note is “TD50_Mouse_Note: TD50 is harmonic mean of more than one positive test, TargetSites_Mouse_BothSexes: liver”, the Potency is 0.00348 mmol/kg/day.

As to `C[C@@H]1Cc2c(Cl)cc(C(=O)N[C@@H](Cc3ccccc3)C(=O)O)c(O)c2C(=O)O1`, the Potency under setting [4] is 0.0159 mmol/kg/day.

For the compound `C[C@H](CCC(=O)O)[C@H]1CC[C@H]2[C@@H]3CC[C@@H]4C[C@H](O)CC[C@]4(C)[C@H]3CC[C@]12C`, the outcome under setting [1] is “inactive; no positive results”.

Regarding `[Cl-].[Hg+]`, under setting [7], the outcome is “inactive; no positive results”.

With `Cc1cc(Cl)ccc1OCC(=O)O`, the outcome under setting [1] is “inactive; no positive results”.

In the case of `[Cl-].[Cl-].[Hg+2]`, the outcome under setting [1] was “inactive; no positive results”.

On to `c1ccc2sc(SSc3nc4ccccc4s3)nc2c1`, for which the outcome under setting [1] was “inactive; no positive results”.

As to `Nc1ccccc1N`, the Potency under setting [4] is 4.06 mmol/kg/day.

For `O[C@@H]([C@H](O)[C@@H](O)CBr)[C@@H](O)CBr`, where the note is “TD50_Mouse_Note: positive test results only by intraperitoneal or intravenous injection, TD50 is harmonic mean of more than one positive, TargetSites_Mouse_Female: hematopoietic system, lung”, the Potency is 0.0484 mmol/kg/day.

Regarding `CCn1cc(C(=O)O)c(=O)c2ccc(C)nc21`, the outcome under setting [1] was “inactive; no positive results”.

Take `Cc1ccccc1[N+](=O)[O-]`: the Potency (TD50_Mouse_Note: TD50 is harmonic mean of more than one positive test, TargetSites_Mouse_Female: large intestine, liver, vascular system) is 0.933 mmol/kg/day.

In the case of `NC(CCC(=O)O)C(=O)O` (stereo unspecified), under setting [7], the outcome is “inactive; no positive results”.

Turning to `C#C[C@]1(OC(C)=O)CC[C@H]2[C@@H]3CCC4=CC(=O)CC[C@@H]4[C@H]3CC[C@@]21C`, the outcome (TD50_Mouse_Note: no positive results are statistically significant, TD50_Mouse_mmol was not calculated for this mixture, but Activiity Sc, TargetSites_Mouse_Female: pituitary gland) was active.

With `CCOP(=S)(OCC)Oc1ccc2c(C)c(Cl)c(=O)oc2c1`, the outcome under setting [1] was “inactive; no positive results”.

With `CCCCOCCO`, the Potency under setting [2] is 14.5 mmol/kg/day.
